Measured values reported in patent US8551984B2, “Aminopyrimidines as SYK inhibitors” (Merck Sharp & Dohme Corp., priority 2009, dated 2013).
pIC50: −log10 of the molar value.

target: recombinant human SYK (GST-hSYK fusion protein) (Homo sapiens, UniProt P43405); experiment: biochemical; settings: rhSYK Activity (IC50), recombinant human GST-SYK 5 pM, ATP 25 μM, biotinylated substrate peptide 250 nM, HTRF, 10-dose titration
Description: Homogeneous Time-Resolved Fluorescence (HTRF) Assay for the Recombinant Human SYK Enzyme:

Row | SMILES | pIC50
1 | Cc1cc(Nc2ncc(Cl)c(C)n2)cc(-c2cnc(C3(O)CCC3)s2)c1 [Example 103, 1-(5-{3-[(5-chloro-4-methylpyrimidin-2-yl)amino]-5-methylphenyl}-1,3-thiazol-2-yl)cyclobutanol] | > 7.00
2 | CC(=O)c1ccnc(Nc2cc(C)cc(-c3cnc(C(C)(O)C(F)(F)F)s3)c2)n1 (centres unmarked) [Example 106, 1-[2-({3-methyl-5-[2-(1,1,1-trifluoro-2-hydroxypropan-2-yl)-1,3-thiazol-5-yl]phenyl}amino)pyrimidin-4-yl]ethanone] | > 7.00

Second part, the molecule after the results:

Row | pIC50 | SMILES
3 | > 7.00 | C=Cc1ccnc(Nc2cc(C)cc(-c3cnc(C4(O)CCC4)s3)c2)n1 [Example 104, 1-(5-{3-[(4-ethenylpyrimidin-2-yl)amino]-5-methylphenyl}-1,3-thiazol-2-yl)cyclobutanol]
4 | 6.00 to 7.00 | COC/C=C/c1ccnc(Nc2cc(C)cc(-c3cnc(C4(O)CCC(C(=O)OC(C)(C)C)CC4)s3)c2)n1 (centres unmarked) [Example 104-1]
5 | > 7.00 | COC/C=C/c1ccnc(Nc2cc(C)cc(-c3cnc(C4(O)CCC(C(=O)O)CC4)s3)c2)n1 (centres unmarked) [Example 104-2]
6 | > 7.00 | Cc1cc(Nc2nccc(C(O)CO)n2)cc(-c2cnc(C3(O)CCC3)s2)c1 (centres unmarked) [Example 105, 1-[2-({3-[2-(1-hydroxycyclobutyl)-1,3-thiazol-5-yl]-5-methylphenyl}amino)pyrimidin-4-yl]ethane-1,2-diol]
7 | > 7.00 | Cc1cc(Nc2nccc(C3CCC3)n2)cc(-c2cnc(C3(O)CCC3)s2)c1 [Example 107, 1-(5-{3-[(4-cyclobutylpyrimidin-2-yl)amino]-5-methylphenyl}-1,3-thiazol-2-yl)cyclobutanol]
8 | > 7.00 | Cc1cc(Nc2nccc(C3CCCC3)n2)cc(-c2cnc(C3(O)CCC3)s2)c1 [Example 107-1]
9 | > 7.00 | Cc1cc(Nc2nccc(C3CCCCC3)n2)cc(-c2cnc(C3(O)CCC3)s2)c1 [Example 107-2]

same assay, conditions: rhSYK Activity, Table 108A

Row | SMILES | pIC50
10 | Cc1cc(Nc2nccc(OCc3nccn3C)n2)cc(-c2cnc(C3(O)CCC3)s2)c1 [Example 108A-1] | > 7.00
11 | Cc1cc(Nc2nccc(OCc3c[nH]cn3)n2)cc(-c2cnc(C3(O)CCC3)s2)c1 [Example 108A-2] | > 7.00
12 | Cc1cc(Nc2nccc(OCCN3CCOCC3=O)n2)cc(-c2cnc(C3(O)CCC3)s2)c1 [Example 108A-3] | > 7.00
13 | Cc1cc(Nc2nccc(OCC3CCCOC3)n2)cc(-c2cnc(C3(O)CCC3)s2)c1 (centres unmarked) [Example 108A-4] | > 7.00
14 | Cc1cc(Nc2nccc(OC(CN)c3ccncn3)n2)cc(-c2cnc(C3(O)CCC3)s2)c1 (centres unmarked) [Example 108A-6] | > 7.00
15 | Cc1cc(Nc2nccc(OCc3cccc4ccnn34)n2)cc(-c2cnc(C3(O)CCC3)s2)c1 [Example 108A-7] | 6.00 to 7.00
16 | Cc1cc(Nc2nccc(OCCc3cnn(C)c3)n2)cc(-c2cnc(C3(O)CCC3)s2)c1 [Example 108A-8] | > 7.00
17 | Cc1cc(Nc2nccc(OCc3ccon3)n2)cc(-c2cnc(C3(O)CCC3)s2)c1 [Example 108A-9] | > 7.00
18 | Cc1cc(Nc2nccc(OCCn3nccn3)n2)cc(-c2cnc(C3(O)CCC3)s2)c1 [Example 108A-12] | > 7.00
19 | Cc1cc(Nc2nccc(OCCn3ccnn3)n2)cc(-c2cnc(C3(O)CCC3)s2)c1 [Example 108A-13] | > 7.00
20 | Cc1cc(Nc2nccc(OCCNC3CCN(C)CC3)n2)cc(-c2cnc(C3(O)CCC3)s2)c1 [Example 108A-14] | 6.00 to 7.00
21 | Cc1cc(Nc2nccc(OCC3Cc4ccccc4N3)n2)cc(-c2cnc(C3(O)CCC3)s2)c1 (centres unmarked) [Example 108A-15] | 6.00 to 7.00
22 | Cc1cc(Nc2nccc(OCc3ccnn3C)n2)cc(-c2cnc(C3(O)CCC3)s2)c1 [Example 108A-16] | > 7.00
23 | Cc1cc(Nc2nccc(OCCN3CCCNCC3)n2)cc(-c2cnc(C3(O)CCC3)s2)c1 [Example 108A-19] | > 7.00
24 | Cc1cc(Nc2nccc(OCC3CN(C)CCN3C)n2)cc(-c2cnc(C3(O)CCC3)s2)c1 (centres unmarked) [Example 108A-20] | > 7.00
25 | Cc1cc(Nc2nccc(OCCc3nnn[nH]3)n2)cc(-c2cnc(C3(O)CCC3)s2)c1 [Example 108A-21] | > 7.00
26 | Cc1cc(Nc2nccc(OCC#Cc3cncnc3)n2)cc(-c2cnc(C3(O)CCC3)s2)c1 [Example 108A-22] | 6.00 to 7.00
27 | Cc1cc(Nc2nccc(OCC3(C)CCCNC3)n2)cc(-c2cnc(C3(O)CCC3)s2)c1 (centres unmarked) [Example 108A-24] | > 7.00
28 | Cc1cc(Nc2nccc(OCCC3CN(C)CCO3)n2)cc(-c2cnc(C3(O)CCC3)s2)c1 (centres unmarked) [Example 108A-25] | > 7.00
29 | Cc1cc(Nc2nccc(OC(C)CN3CC(C)OC3=O)n2)cc(-c2cnc(C3(O)CCC3)s2)c1 (centres unmarked) [Example 108A-27] | > 7.00
30 | Cc1cc(Nc2nccc(OCCOc3cccc(O)c3)n2)cc(-c2cnc(C3(O)CCC3)s2)c1 [Example 108A-28] | 6.00 to 7.00
31 | Cc1cc(Nc2nccc(OCCCc3cccnc3)n2)cc(-c2cnc(C3(O)CCC3)s2)c1 [Example 108A-29] | > 7.00
32 | Cc1cc(Nc2nccc(OCCN3CCCC3=O)n2)cc(-c2cnc(C3(O)CCC3)s2)c1 [Example 108A-30] | > 7.00
33 | Cc1cc(Nc2nccc(OCCCCO)n2)cc(-c2cnc(C3(O)CCC3)s2)c1 [Example 108A-31] | > 7.00
34 | Cc1cc(Nc2nccc(SCCCCO)n2)cc(-c2cnc(C3(O)CCC3)s2)c1 [Example 108A-46] | > 7.00

Results, then the molecule that gave them:

Row | pIC50 | SMILES
35 | > 7.00 | Cc1cc(Nc2nccc(OCC3CC(=O)N(C)C3)n2)cc(-c2cnc(C3(O)CCC3)s2)c1 (centres unmarked) [Example 108A-23]
36 | > 7.00 | Cc1cc(Nc2nccc(OCCO)n2)cc(-c2cnc(C3(O)CCC3)s2)c1 [Example 108A-34]
37 | > 7.00 | Cc1cc(Nc2nccc(OCCCO)n2)cc(-c2cnc(C3(O)CCC3)s2)c1 [Example 108A-35]
38 | > 7.00 | CCOc1ccnc(Nc2cc(C)cc(-c3cnc(C4(O)CCC4)s3)c2)n1 [Example 108A-36]
39 | > 7.00 | Cc1cc(Nc2nccc(OC(C)C)n2)cc(-c2cnc(C3(O)CCC3)s2)c1 [Example 108A-37]
40 | > 7.00 | Cc1cc(Nc2nccc([S+](C)[O-])n2)cc(-c2cnc(C3(O)CCC3)s2)c1 (centres unmarked) [Example 108A-38]
41 | > 7.00 | Cc1cc(Nc2nccc(S(C)(=O)=O)n2)cc(-c2cnc(C3(O)CCC3)s2)c1 [Example 108A-39]
42 | > 7.00 | CCSc1ccnc(Nc2cc(C)cc(-c3cnc(C4(O)CCC4)s3)c2)n1 [Example 108A-40]
43 | 6.00 to 7.00 | CCCCSc1ccnc(Nc2cc(C)cc(-c3cnc(C4(O)CCC4)s3)c2)n1 [Example 108A-41]
44 | > 7.00 | Cc1cc(Nc2nccc(SC(C)C)n2)cc(-c2cnc(C3(O)CCC3)s2)c1 [Example 108A-43]
45 | > 7.00 | Cc1cc(Nc2nccc(SCCO)n2)cc(-c2cnc(C3(O)CCC3)s2)c1 [Example 108A-44]
46 | > 7.00 | Cc1cc(Nc2nccc(SCCCO)n2)cc(-c2cnc(C3(O)CCC3)s2)c1 [Example 108A-45]

same assay, conditions: rhSYK Activity, Table 109

Row | pIC50 | SMILES
47 | > 7.00 | CC(=O)N1CCC(Oc2ccnc(Nc3cc(N)cc(-c4cnc(C5(O)CCC5)s4)c3)n2)CC1 [Example 109-6]
48 | 6.00 to 7.00 | O=C(Nc1cc(Nc2nccc(OC3CCOCC3)n2)cc(-c2cnc(C3(O)CCC3)s2)c1)C(F)(F)F [Example 109-7]
49 | > 7.00 | CC(=O)Nc1cc(Nc2nccc(OC3CCOCC3)n2)cc(-c2cnc(C3(O)CCC3)s2)c1 [Example 109-8]
50 | > 7.00 | Nc1cc(Nc2nccc(OC3CCOCC3)n2)cc(-c2cnc(C3(O)CCC3)s2)c1 [Example 109-9]
